Laboratory results taken from patent US20100209931A1, “Compositions for Identifying Novel Compositions for the Treatment of Disease and Methods of Using Same” (priority 2009, published 2010).
“Also recorded” adds a separate entry of the source.

Legend:
MPNST cell lines = experiment: growth of MPNST cell lines; type: cell-based, human
erg6Δ ira2Δ cells [1] = experiment: growth on solid agar media, serial dilutions spotted; settings: SC plates with compound, three days at 30° C.
erg6Δ cells = experiment: 96-well plate growth assay, erg6Δ strain; type: cell-based, Saccharomyces cerevisiae
erg6Δ ira2Δ cells [2] = experiment: 96-well plate growth assay, erg6Δ ira2Δ strain; type: cell-based, Saccharomyces cerevisiae; settings: for sensitivity of growth to compound: erg6Δ ira2Δ, 96-well plate growth assay, optical density, 30° C.
cells lacking IRA2 = experiment: growth of cells lacking IRA2, 96-well plates; type: cell-based, Saccharomyces cerevisiae
erg6Δ iralΔ ira2Δ = experiment: 96-well plate growth assay, erg6Δ ira1Δ ira2Δ strain; settings: genotype erg6Δ iralΔ ira2Δ; OD 595 nm after 24 hours
Protocol: Wild type yeast cells (MLY41 a strain derived from the Σ11278b background) and cells having the genotypes shown in Table 2 are grown overnight in SC media, 75 μL of culture at a starting optical density of 0.1 are added to a 96 well plate containing 75 μL of SC media with twice the desired final concentration of the compound of Formula I in 1% DMSO. Plates are incubated in a humidified 30° C. chamber and scanned on an optical density plate reader at 595 nm after 24 hours. […] Strains are treated as described above, and the growth of the culture is monitored for 24 hours at the indicated intervals. The points represent the mean of three wells per condition.

## COc1cccc(-c2cc(=O)c3ccccc3o2)c1N [PD98059]
MPNST cell lines
  growth in MPNST lines: inhibiting growth
MPNST cell lines; NF1−1− MPNST cell line relative to NF1+/+ MPNST line
  selective suppression of growth of NF1-/- MPNST cell line relative to NF1+/+ MPNST line: selectively suppress growth
erg6Δ ira2Δ cells [1]
  sensitivity of growth on agar media: increased sensitivity
erg6Δ cells; erg6Δ alone, 96-well plate growth assay
  sensitivity of growth to compound: not sensitive
erg6Δ ira2Δ cells [2]; 50 μM PD98059
  sensitivity of cells lacking ERG6 and IRA2: sensitive
erg6Δ ira2Δ cells [2]; 25 μL (so in the source) PD98059, 24 hours
  sensitivity of cells lacking ERG6 and IRA2: less sensitive
erg6Δ ira2Δ cells [2]
  sensitivity of growth to compound: sensitized; also recorded: increased sensitivity

## CO[C@H]1C[C@@H]2CC[C@@H](C)[C@@](O)(O2)C(=O)C(=O)N2CCCC[C@H]2C(=O)O[C@H]([C@H](C)C[C@@H]2CC[C@@H](O)[C@H](OC)C2)CC(=O)[C@H](C)/C=C(\C)[C@@H](O)[C@@H](OC)C(=O)[C@H](C)C[C@H](C)/C=C/C=C/C=C/1C [rapamycin]
Cells lacking IRA2; rapamycin dose used in combination, 24 hours
  growth inhibition of cells lacking IRA2 by rapamycin alone: does not inhibit

## CC[C@@]1(O)C(=O)OCc2c1cc1n(c2=O)Cc2cc3ccccc3nc2-1 [camptothecin]
erg6Δ ira2Δ cells [1]
  sensitivity of growth on agar media: differential sensitivity; also recorded: sensitizes

## N=C(N)SCc1cn(-c2ccccc2)nc1-c1cccc(Br)c1 [Formula II]
erg6Δ cells; genotype erg6Δ, OD 595 nm after 24 hours
  Effect of Compound of Formula II: Inhibition at 50 uM
erg6Δ iralΔ ira2Δ
  Effect of Compound of Formula II (inhibition at concentration): Inhibition at less than 10 uM
erg6Δ ira2Δ cells [2]
  sensitivity of growth to compound: differential sensitivity
erg6Δ ira2Δ cells [2]; genotype ira2Δ, erg6Δ, OD 595 nm after 24 hours
  Effect of Compound of Formula II: Inhibition at 10 uM and 50 uM
Cells lacking IRA2; FIG. 7
  growth of cells lacking IRA2: Growth inhibition
